What was measured:
[1] = tested on: calcium-induced arrhythmias; assay: Calcium-induced arrhythmia model (Lynch et al.) in mice; format: in vivo, Male NMRI mice; conditions: isopeptide 1 nmol/kg i.v. 3 min before CaCl2 infusion; (tarr(testcompound)-tarr(vehicle))x100/tarr(vehicle), time lag to first conduction block
Protocol: Isopeptides suitable for administration to cardiac cells can be identified in an in vivo model of calcium-induced arrhythmias according to the model of Lynch et al. (1981) J Cardiovasc. Pharmacol. 3: 49-60. Mice (25-30 g) are anaesthetized with a neurolept anaesthetic combination and an i.v. cannula is inserted into the tail vein. A lead II ECG signal is recorded continuously by positioning a stainless steel ECG electrodes on the right forelimb and on the left hind limb. The ground electrode is placed on the right hind limb. The signal is amplified (x 5.000-10.000) and filtered (0.1-150 Hz) via a Hugo Sachs Electronic model 689 ECG module. The analog signal is digitized via a 12 bit data acquisition board (Data Translation model DT321) and sampled at 1000 Hz using the Notocord HEM 3.1 software for Windows NT. After a 10-minute equilibration period, the test sample of peptide is injected into the tail vein. Mice pre-treated with buffer are tested as a measure of the control level in untreated animals. The injection volume is 100 μl in all experiments.
Infusion of CaCl2 (30 mg/ml, 0.1 ml/min≈100 mg/kg/min (calcium chloride-2-hydrate, Riedel-de Haën, Germany)) is started 3 min after i.v. administration of drug or vehicle. The time lag to onset of 2nd degree AV-block is determined as the time from the start of CaCl2 infusion until the first arrhythmic event occurs. An event of 2nd degree AV-block is defined as intermittent failure of the AV conduction characterised by a P-wave without the concomitant QRS complex.
Responses are expressed relative to the time until 2nd degree AV-block occurred in vehicle treated mice. The maximal effect of compounds (e.g., isopeptides, AAP, AAP10 or controls) is determined. […]
An intravenous cannula was inserted into the tail vein. The lead II ECG signal was recorded continuously by positioning of stainless steel ECG electrodes on the right forelimb and on the left hind limb. […]

human osteoblast cells = assay: Standard tumor promoter assay: Lucifer Yellow dye transfer, DDT-induced uncoupling; format: cell-based; conditions: DDT 13 μM for 60 minutes, n=13; control without DDT median 14.5 cells
Source text: The compound 1,1-bis(p-chlorophenyl)-2,2,2-trichlorethane, also known as the insecticide DDT, is an inhibitor of gap junctional communication, and has tumor promoting abilities. It inhibits cell-to-cell communication by reducing the gap junction number and size, and exposure to DDT is associated with decreased cellular levels of phosphorylated (active) forms of the gap junction protein Cx43. These actions are considered pivotal for the compound's oncogenic properties (X. Guan, et al. (1996) Carcinogenesis, 17 1791-1798; R. J. Ruch, et al. (1994) Carcinogenesis, 15 301-306); B. V. Madhukar, et al. (1996) Cancer Lett. 106 117-123). As a means of monitoring the therapeutic efficacy of the isopeptides, the effects of the isopeptides on DDT-induced uncoupling in human osteoblast cells can be determined. […]
After harvesting, the mononuclear fraction is washed once with culture medium and centrifuged at 1800 rpm for 10 minutes. Subsequently cells are counted and plated in culture medium at 8×10^6 cells/100 mm dish. […]
After culturing, cells are affixed to a PDMI-2 culture chamber (Medical Systems Corp.), maintained at 37° C. with superfused CO2, on a Zeiss Axiovert microscope. […] A cell in the monolayer is carefully injected with LY for 30 seconds; the micropipette is removed from the cell and after 30 seconds the number of cells that show dye transfer is counted. […]

**Q.** With “H-Gly-iso-D-Lys(4-nitrobenzoyl)-OH [Compound 19]” as the compound, how does the “% response” value [1] read?
**A.** The value was 33%.

**Q.** For Clc1ccc(C(c2ccc(Cl)cc2)C(Cl)(Cl)Cl)cc1 [DDT, 1,1-bis(p-chlorophenyl)-2,2,2-trichlorethane], which “number of cells that show dye transfer (median)” value (human osteoblast cells) is on record?
**A.** Its value is 7.

**Q.** Which “% response” value [1] does the source give for “H-iso-Gln(NH(4-methoxybenzyl))-Ala-OH [Compound 101]” here?
**A.** Its value is 68%.

**Q.** How did the “% response” value [1] turn out when “H-Gly-iso-D-Lys(4-methoxybenzoyl)-OH [Compound 18]” was run?
**A.** The value was 16%.

**Q.** “H-iso-Gln(NH(4-methoxybenzyl))-D-Ala-OH [Compound 116]” was tested. Which “% response” value [1] did it give?
**A.** The value was 25%.
